From patent US6727084B1, “Cold-active beta-galactosidase, the process for its preparation and the use thereof” (Universite de Liege, priority 1999, dated 2004)
Entries after “also recorded” stand apart in the source; their conditions may differ.

Columns and labels:
[1] = biological target: T1, E. coli β-galactosidase (Sigma G2513) (Escherichia coli, UniProt P00722); assay: kinetics of E. coli β-galactosidase (control) with ONPG as substrate; assay type: biochemical
Source text: (§1) The definition of enzyme activity units can be defined according to the substrate used with lactose as a substrate, the unit of activity is defined as the amount of enzyme which releases one micro-mole glucose in one minute under standard reaction conditions (temperature, pH). Another commonly used substrate is ortho-nitrophenyl-β-D galactopyranoside (ONPG) and in this case, the unit of activity is defined as the amount of enzyme which hydrolyses one micro-mole of ONPG in one minute under standard reaction conditions.
(§2) The β-galactosidase from Escherichia coli used as a control was from Sigma (G2513).
(§3) The activation energy (Ea) was determined from the slope (−Ea/R) of Arrhenius plot and the thermodynamic activation parameters of the reaction were calculated according to the following equations: […]
(§4) At 8° C., the kcat (s^−1) of the LMG P-19143 enzyme is twice as high as that of E. coli enzyme. Theses curves have been used to construct Arrhenius plots and to calculate the activation energy parameters of the reaction as shown in table 2.
(§5) Assays were performed with ONPG as a substrate at various concentrations and at different temperatures to determine Km and Vmax values.

[2] = biological target: T2, Pseudoalteromonas haloplanktis LMG P-19143 cold-active β-galactosidase (lac Z), native, SEQ ID NO: 2 (Pseudoalteromonas haloplanktis, UniProt P81650); assay: kinetics of LMG P-19143 β-galactosidase with ONPG as substrate; assay type: biochemical; parameters: ORF of 1038 residues
Source text: as §1, §3, §4, §5

[3] = biological target: T2, Pseudoalteromonas haloplanktis LMG P-19143 cold-active β-galactosidase (lac Z), native, SEQ ID NO: 2; assay: biochemical; settings: pH 7.5, read-out: residual activity after EDTA treatment (% of initial activity)
Experimental: The assay of β-galactosidase was carried out using 3 mM ONPG (ortho-nitrophenyl-β-galactopyranoside) as a chromogenic substrate in 100 mM sodium phosphate buffer, pH 7,3, 1 mM MgCl2, 100 mM 2-mercaptoethanol (Sigma). Activities toward the chromogenic substrate were recorded in a thermostated Uvicon 860 Spectrophotometer (Kontron) at 25° C. and calculated on the basis of an extinction coefficient for o-nitrophenol of 3.5 mM^−1 cm^−1 at 410 nm (Miller, J. H. and Reznikoff, W. S., Eds. 1978; The Operon. Cold Spring Harbor Laboratory Press, N.Y.). Assays using lactose as a substrate were carried out using various concentrations of lactose. The reaction was stopped by boiling the sample in a water bath for 3 minutes. The galactose dehydrogenase assay was used to measure the amount of galactose released by the enzyme (Schachter H. 1975, Enzymatic microassays for D-Mannose, D-Glucose, D-Galactose, L-Fucose, and D-Glucosamine. Methods Enzymol., 41: 3-10.) The specific activity of β-galactosidase is defined as micro-moles of galactose released per minute per mg of protein.
To determine the effect of divalent metal ions on activity, assays were performed in 100 mM phosphate buffer at 25° C. and pH 7.5. The enzyme preparation was treated with 5 mM EDTA to complex metal ions.

[4] = biological target: T2, Pseudoalteromonas haloplanktis LMG P-19143 cold-active β-galactosidase (lac Z), native, SEQ ID NO: 2; assay: kinetics of LMG P-19143 β-galactosidase with lactose as substrate (galactose dehydrogenase assay); assay type: biochemical; parameters: ORF of 1038 residues; settings: 25° C.
Source text: as §1
Km was also determined at 25° C. with lactose (1 mM to 50 mM) as a substrate.

[5] = biological target: T1, E. coli β-galactosidase (Sigma G2513); assay: biochemical; settings: read-out: stimulation of enzyme activity by 2-mercaptoethanol (factor)
Experimental: as §2
(§6) The effect of K+ was determined by assaying activity in 100 mM phosphate buffer containing KCl at concentrations from 0 to 100 mM. LMG P-19143 β-galactosidase optimal activity was recorded using a KCl concentration of 80 mM whereas the E. coli β-galactosidase optimal activity was recorded at a KCl concentration of 40 mM. At theses concentrations, KCl stimulated the activity of both enzymes by a factor of 1.5.
(§7) Optimal activity of the LMG P-19143 enzyme was recorded at 80 mM 2-mercaptoethanol and that of E. coli enzyme at 40 mM 2-mercaptoethanol. At these concentrations, the reducing agent stimulated LMG P-19143 enzyme activity twofold and E. coli enzyme by a factor of 1.5.

[6] = biological target: T2, Pseudoalteromonas haloplanktis LMG P-19143 cold-active β-galactosidase (lac Z), native, SEQ ID NO: 2; assay: effect of 2-mercaptoethanol on LMG P-19143 β-galactosidase activity; assay type: biochemical; parameters: ORF of 1038 residues; settings: 80 mM 2-mercaptoethanol (optimal activity), 100 mM phosphate buffer; ONPG
Experimental: as §6, §7

T2 sequence (P81650 whole entry): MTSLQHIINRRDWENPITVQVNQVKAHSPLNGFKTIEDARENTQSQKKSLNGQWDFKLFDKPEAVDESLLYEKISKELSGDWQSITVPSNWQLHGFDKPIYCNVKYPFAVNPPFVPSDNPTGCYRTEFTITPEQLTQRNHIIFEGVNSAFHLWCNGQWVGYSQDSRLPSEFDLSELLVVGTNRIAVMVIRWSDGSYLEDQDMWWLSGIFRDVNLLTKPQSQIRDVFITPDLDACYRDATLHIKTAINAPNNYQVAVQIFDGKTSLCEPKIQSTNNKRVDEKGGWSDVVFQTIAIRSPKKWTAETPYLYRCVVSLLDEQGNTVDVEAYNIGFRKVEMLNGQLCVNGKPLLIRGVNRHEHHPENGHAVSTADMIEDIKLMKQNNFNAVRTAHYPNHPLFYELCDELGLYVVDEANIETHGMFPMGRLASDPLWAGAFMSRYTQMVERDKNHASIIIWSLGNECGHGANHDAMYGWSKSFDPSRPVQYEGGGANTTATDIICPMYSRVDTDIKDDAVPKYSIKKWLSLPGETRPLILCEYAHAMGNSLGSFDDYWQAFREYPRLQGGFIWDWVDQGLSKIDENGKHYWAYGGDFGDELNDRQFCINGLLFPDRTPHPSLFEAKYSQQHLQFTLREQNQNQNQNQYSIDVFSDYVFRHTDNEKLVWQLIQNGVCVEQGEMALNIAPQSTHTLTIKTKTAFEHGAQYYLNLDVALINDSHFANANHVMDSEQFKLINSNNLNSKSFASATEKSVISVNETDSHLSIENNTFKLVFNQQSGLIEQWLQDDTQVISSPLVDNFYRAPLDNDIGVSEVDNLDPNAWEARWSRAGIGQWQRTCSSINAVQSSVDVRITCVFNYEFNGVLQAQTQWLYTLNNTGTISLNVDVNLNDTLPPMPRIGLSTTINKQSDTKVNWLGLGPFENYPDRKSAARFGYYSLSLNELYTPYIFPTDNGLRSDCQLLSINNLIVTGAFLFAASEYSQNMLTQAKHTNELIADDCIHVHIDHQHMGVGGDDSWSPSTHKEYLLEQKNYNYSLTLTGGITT
T1 sequence (P00722 whole entry): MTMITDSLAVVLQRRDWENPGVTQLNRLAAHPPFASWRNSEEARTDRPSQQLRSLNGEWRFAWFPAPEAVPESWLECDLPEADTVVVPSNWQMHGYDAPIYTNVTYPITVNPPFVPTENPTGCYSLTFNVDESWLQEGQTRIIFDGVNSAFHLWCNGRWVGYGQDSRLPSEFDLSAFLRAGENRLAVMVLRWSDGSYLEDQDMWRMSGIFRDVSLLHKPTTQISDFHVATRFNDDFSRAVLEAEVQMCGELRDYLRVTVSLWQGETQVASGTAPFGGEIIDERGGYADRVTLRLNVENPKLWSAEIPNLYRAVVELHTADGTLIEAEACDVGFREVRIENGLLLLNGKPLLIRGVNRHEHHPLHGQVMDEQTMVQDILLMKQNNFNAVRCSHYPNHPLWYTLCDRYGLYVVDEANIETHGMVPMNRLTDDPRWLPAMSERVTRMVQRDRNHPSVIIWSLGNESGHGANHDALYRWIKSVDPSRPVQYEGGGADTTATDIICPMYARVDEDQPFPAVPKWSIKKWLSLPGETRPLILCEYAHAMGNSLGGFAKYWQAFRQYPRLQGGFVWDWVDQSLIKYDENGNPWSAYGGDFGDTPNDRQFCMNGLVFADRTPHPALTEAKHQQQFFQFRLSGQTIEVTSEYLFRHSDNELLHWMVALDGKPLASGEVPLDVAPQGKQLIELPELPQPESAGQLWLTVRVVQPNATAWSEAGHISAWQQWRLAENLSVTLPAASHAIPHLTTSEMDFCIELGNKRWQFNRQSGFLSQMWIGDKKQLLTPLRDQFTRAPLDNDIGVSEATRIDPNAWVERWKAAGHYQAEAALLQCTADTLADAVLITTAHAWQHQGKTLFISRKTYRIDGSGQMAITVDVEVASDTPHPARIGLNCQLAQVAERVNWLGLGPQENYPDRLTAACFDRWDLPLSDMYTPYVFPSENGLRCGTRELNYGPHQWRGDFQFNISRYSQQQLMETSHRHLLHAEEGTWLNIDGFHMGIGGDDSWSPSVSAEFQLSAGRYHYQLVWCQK

O=[N+]([O-])c1ccccc1O[C@@H]1O[C@H](CO)[C@H](O)[C@H](O)[C@H]1O [ONPG, ortho-nitrophenyl-β-D galactopyranoside]
apparent Km (compared with LMG P-19143 enzyme) ([1]; 10° C.): nearly the same
kcat ([1]; 20° C.): 199 s⁻¹
km (comparison of both enzymes) ([1]; at low temperature): comparable
kcat relative to that of E. coli enzyme ([2]; ONPG as substrate, 8° C.): twice as high
apparent Km (compared with E. coli enzyme) ([2]; ONPG as substrate, 10° C.): nearly the same
kcat ([2]; ONPG as substrate, 20° C.): 408 s⁻¹
km (comparison of both enzymes) ([2]; ONPG as substrate, at low temperature): comparable
physiological efficiency (kcat/km) relative to E. coli enzyme ([2]; ONPG as substrate, FIG. 6): about three times higher
turnover (kcat) relative to E. coli enzyme ([2]; ONPG, temperature range of 0-40° C.): higher

O=C(O)CN(CCN(CC(=O)O)CC(=O)O)CC(=O)O [EDTA]
remaining activity at 5000 µM [3]: < 10%

OC[C@H]1O[C@@H](O[C@H]2[C@H](O)[C@@H](O)C(O)O[C@@H]2CO)[C@H](O)[C@@H](O)[C@H]1O (stereo partly drawn) [lactose]
km relative to E. coli enzyme [4]: five times lower
physiological efficiency (kcat/km) relative to E. coli β-galactosidase [4]: eighty times as high; also recorded: ninety times higher
turnover (kcat) relative to E. coli enzyme [4]: fifteen times

OCCS [2-mercaptoethanol]
fold induction at 40000 µM [5]: 1.5
stimulation of enzyme activity by 2-mercaptoethanol [6]: twofold
